According to patent EP0372541A1, “Method for imparting immunosuppression” (priority 1988, dated 1990):

Assays:
[1] = test system: cyclosporine-treated renal transplant recipients; assay: Randomized, double-blind, placebo controlled clinical study in renal transplant recipients on cyclosporine; format: in vivo, human; settings: for Acute Rejection / Creatinine / Creatinine Clearance: 200 µg Q.I.D. with cyclosporine
Excerpt: A randomized, double-blind, placebo controlled study was designed: (1) to determine the safety and efficacy of a PGE₁ prostaglandin in reducing cyclosporine-induced nephrotoxicity in renal transplant recipients; and (2) to examine the effects of the PGE₁ prostaglandin on the incidence rate of clinically important events such as acute transplant rejection.
The PGE, prostaglandin evaluated was misoprostol, ((±) methyl 11α, 16-dihydroxy-16-methyl-9-oxoprost-13E-en-1-oate). Subjects received the PGE₁ prostaglandin in dosages of 200 µg or a placebo four times a day (Q.I.D.) for the first twelve weeks following transplantation. A study population of 77 subjects was evaluated. Efficacy was assessed by a serial comparison of renal function and by measuring the duration and functional severity of transplant rejection, cyclosporine nephrotoxicity, and other episodes of acute renal failure in the PGE₁ prostaglandin and the placebo groups. Serial measurements of serum creatinine and creatinine clearance were used to determine trends and differences in renal function between treatment groups.
The subjects in the clinical study were first stratified into two groups according to the source of the allograft, cadaver or living-related donor. Members of each group were assigned at random in the order of enrollment to receive the PGE₁ prostaglandin or the placebo according to a computer-generated assignment schedule prepared prior to the start of the study. The purpose of this approach was to guarantee adequate randomization of subjects as a function of allograft source and probable post-transplantation function.
The administration of the prostaglandin began with the first dose of cyclosporine. The subjects received the .prostaglandin Q.I.D. given 30-60 minutes p.c. (after a meal) and h.s. (at night). The prostaglandin initially could be administered via a nasogastric tube. Following discharge of the patient from the hospital. the patient began to administer the placebo or prostaglandin and recording the dosing in a diary. The test article dosing remained one tablet Q.I D. continuing the 30-60 minute p.c and h.s. schedule.
Hematology and chemistry profiles were obtained on the first and seventh post-transplantation days and again after four weeks. A chemistry profile was obtained at eight and twelve weeks. A urinalysis was obtained on the first post-operative day and again after four weeks.
Twenty-four hour creatinine clearance measurements were obtained on post-operative days one, three, and seven, then weekly for three weeks and at four week intervals thereafter until the study was terminated.
Serum creatinine measurements were obtained on postoperative days 1, 3 and 7, and then at weeks 4, 8, 12 and 16.
Measurement of trough cyclosporine levels were required on days one, three, five and seven; twice during each of weeks two, three and four; and at least once during weeks eight, twelve and sixteen.
Acute renal failure was defined as the presence of any of the following: • 1) Any change in renal function which prompted the principal investigator to perform a diagnostic maneuver (e.g., measure of serum creatinine concentration or urinary sodium concentration) or therapeutic maneuver (e.g., give intravenous fluids) to investigate or treat the change. • 2) A rise in serum creatinine concentration from a stable base line of at least 0.2 mg/dl/day for two days or 0.3 mg/dl in one day. • 3) A fall in urine output to less than an average of 25 ml per hour for more than 24 hours.
After twelve weeks of treatment and four additional weeks of observation, the subject underwent a physical examination and a complete medical history was reviewed. The following laboratory tests were also obtained: hematology, PT/PTT, chemistry, urinalysis. creatinine clearance, cyclosporine level and serum beta HCG (where appropriate). In addition, any other measurements of creatinine concentration or clearance obtained during the post-treatment period were recorded.

[2] = test system: mixed lymphocyte response; assay: Mixed lymphocyte response (MLR) assay, tritiated thymidine incorporation; format: cell-based; settings: Figures 9 and 10; for inhibition of the mixed lymphocyte response in combination with cyclosporine: free acid added to cyclosporine; for inhibition of the mixed lymphocyte response in combination with methylprednisolone: free acid added to methylprednisolone
Excerpt: The mixed lymphocyte response is a clinically useful predictor of the immunosuppressive activity of drugs.The mixed lymphocyte response assay data shown below and in Figures 7-10 were obtained with the following method. A stimulator panel of Epstein-Barr virus (EBV) transformed continuous lymphoblastoid cell lines was employed to magnify responses. There were equal numbers of four cell lines with eight different HLA-DR antigens (two per cell line). Stimulator cells were irradiated (13,000 rad) before suspension in a modified RPMI medium. Responder lymphocytes were prepared from heparinized recipient blood by density gradient separation before suspension in glutamine with antibiotic-supplemented RPMI medium containing 10% autologous serum. Equal numbers of responder and stimulator cells (1x 10⁵ in 0.1 ml) were incubated with 0.05 ml of medium (control) or varying concentrations of the three prostaglandin analogs (misoprostol, enisoprost and misoprostol-free acid) or methylprednisolone or cyclosporine or combinations of these agents.
Following incubation at 37°C and 5% CO₂ for five days, one microcurie of tritiated thymidine was added and cell cultures incubated for six hours. Cells were then harvested. MLR responses for the three different prostaglandin analogs were then compared for several different concentrations (Figure 7). The effects of the prostaglandins were also compared to those of the control ethanol diluent (Figure 8).

[3] = 1 Month after renal transplantation
[4] = 2 Months after renal transplantation
[5] = 3 Months after renal transplantation
[6] = listed as PGE₁ prostaglandin free acid

Structure (SMILES)	Acute Rejection [1, 3]	Creatinine [1, 3]	Creatinine Clearance [1, 3]	Acute Rejection [1, 4]	Creatinine [1, 4]	Creatinine Clearance [1, 4]	Acute Rejection [1, 5]	Creatinine [1, 5]	Creatinine Clearance [1, 5]	renal function ([1]; cyclosporine-treated renal transplant recipients, versus placebo)	acute rejection versus placebo ([1]; during the three months of treatment, p = 0.015)	cyclosporine absorption (cyclosporine dosage and trough blood levels by HPLC) ([1]; human, in vivo)	cyclosporine nephrotoxicity (incidence rate of first episodes) ([1]; versus placebo, Figure 5)	inhibition of the mixed lymphocyte response in combination with cyclosporine [2]	inhibition of the mixed lymphocyte response in combination with cyclosporine [2, 6]	inhibition of the mixed lymphocyte response in combination with methylprednisolone [2]	inhibition of the mixed lymphocyte response in combination with methylprednisolone [2, 6]
CCCCC(C)(O)C/C=C/[C@H]1[C@H](O)CC(=O)[C@@H]1CCCCCCC(=O)OC (mixture of isomers) [PGE₁, (±) methyl 11α, 16-dihydroxy-16-methyl-9-oxoprost-13E-en-1-oate]	3 first episode/mo	1.6 ± 0.2 mg/dL	73 ± 5 ml/min/1.73m2	2 first episode/mo	1.4 ± 0.1 mg/dL	77 ± 6 ml/min/1.73m2	2 first episode/mo	1.4 ± 0.1 mg/dL	81 ± 5 ml/min/1.73m2	improved renal function	significantly reduced	no interference with cyclosporine absorption	no increase in cyclosporine nephrotoxicity				
CCCCC(C)(O)CC=CC1C(O)CC(=O)C1CCCCCCC(=O)O (racemic) [misoprostol free acid]														clear evidence of enhancement of immunosuppressive activity	larger than additive effect	clear evidence of enhancement of immunosuppressive activity	larger than additive effect
